# In patent US6379959B1, “Metalocarboxypeptidase inhibitors and derived molecules used as antitumor agents” (Universitat Autonoma de Barcelona, priority 1996, dated 2002):
# Positions of bridges follow the written chain, without caps; N, C: chain ends. No end group written: not given here.
# Key:
# Capan-1 cell line = assay: Proliferation of Capan-1 cells pretreated with PCI; assay type: cell-based, human; settings: pretreatment 50 μg/mL of PCI, 28-34 days; treatment 5-18 days
# Protocol: In the case of the Capan-1 cell line, two different tests and which are described as follows were carried out:
# 1. 5,000 cells were seed in 2 wells of a plate of 12 wells. One of the wells was grown with medium (non-pretreated cells), and the other with medium with 50 μg/mL of PCI (pretreated cells). The cells were kept in such conditions for the period of time that is indicated in the results section as time of pretreatment.
# 2. Twice a week, the medium of the wells was replaced by fresh medium with or without PCI, and each time that in any of the wells confluence was reached, the cells were trypsinized and 1/10 of them was placed again in the original well, the other cells being discarded or frozen.
# 3. Once the desired time of pretreatment elapsed, the cells were trypsinized and counted, being employed to start proliferation tests such as those described in Section 4.B.2.1. The number of cells that was placed per well in the proliferation plate (of 96 wells) was 2,000, 7 replicas being put for each treatment. The cells underwent treatment with or without various PCI concentrations.
# 4. Once the treatment time elapsed, the number of cells per well was estimated as previously described in Section 4.B.2.a.
# [1] = test system: mouse melanoma B16HM cell line; assay: In vitro invasiveness assay through Matrigel membrane; assay type: cell-based; settings: PCI 50 μg/mL
# Protocol: In this test, with the aim of determining whether the PCI causes some difference in the invasive capacity of tumoral cells in vitro, the number of cells which had migrated through a membrane of Matrigel© in presence or absence of PCI in the culture medium was determined. The detailed protocol is as follows:
# 1. The wells of Matrigel© which are going to be employed are placed at room temperature on an empty plate of 24.
# 2. The wells are hydrated by adding […] of tempered full medium and kept for 1.5-2.0 h.
# 3. After the hydration, take the medium carefully out of the wells; later on, 200,000 cells are added to two wells, respectively. In one of them, we will add the medium in which the cells grow and in the other, medium with PCI.
# 4. After 17 h of culture in an incubator at 37° C., 90% of relative humidity and 5% of CO2, the samples are processed as follows:
# 4.11. Look at the microscope and count the number of cells that have migrated through the Matrigel filter.
# The invasiveness tests in vitro were carried out with the mouse melanoma B16HM cell line selected as previously described (Barberàr-Guillem, E. et al. (1988) Invasion Metastasis, 8: 266-284). The wells were placed with medium in absence of PCI (control) and in presence of PCI, at a concentration of 50 μg/mL. […]
# [2] = test system: human pancreatic adenocarcinoma cell line Capan-1; assay: Cytotoxicity test with BCECF-AM and propydium iodure; assay type: cell-based; settings: PCI 10-75 μg/mL, 24 h
# Excerpt: The cytotoxicity test is based on the use of two fluorophores, BCECF-AM and propydium iodure. The first one is employed to mark the viable cells because it quickly penetrates into the cellular cytoplasm where it is fragmented by the action of the esterases, becoming a fluorescent molecule. These esterases only being active when the cells are alive. Propydium iodine is a derivative of the phenanthrene which specifically joins the polynucleotide structure of nucleic acids intercalating between their pairs of bases. Due to its ionic structure it cannot penetrate into the live cells but it can do so into the dead ones, labeling DNA and RNA. […]
# 1. The absorbancy of the plate was read using cytofluor. The cytofluor is a fluorometer especially designed for reading the fluorescence of the cells; it is controlled by computer which makes it possible to employ various filter combinations of excitation-emission at the same time. […] These filters allow us to detect the fluorescence of the two reagents employed for the cytotoxicity test such as BCECF-AM and propydium iodide. This first reading corresponds to the self-fluorescence of the cells, which it will later be deducted from the final value of the fluorescence. […]
# 3. Afterwards, the absorbancy of the plate was read. This measure corresponds to the total fluorescence.
# 4. […] Thus, we eliminated the fluorescence that had not been incorporated by the cells. […]
# [3] = test system: human pancreatic adenocarcinoma cell line Capan-1; settings: 16 days
# Protocol: Two kinds of tests were carried out; the first one is the treatment of cells of the human pancreatic adenocarcinoma cell line Capan-1 with wtPCI and tail added to the culture medium in absence of serum.
# In a culture plate with 96 wells, 5,000 cells were seed per well, in 24 of them. The cells were placed in full medium (DMEM+10%FBS).
# In 6 wells (control): 200 μL of serum-free medium (DMEM-FBS) and free of tail were added.
# 200 μL of serum-free medium with 50 μg/mL of native PCI were added.
# In 6 wells, 200 μL of serum-free medium with 0.128 μg of tail/mL were added.
# In 6 wells, serum-free medium with 6.4 μg of tail/mL was added.
# The medium contained in the wells was changed every 3-4 days. The old medium was sucked out using a Pasteur pipette.
# After 16 days, the cell growth per well was evaluated according to the method detailed in the protocol of Section 4.B.2.a.
substance,measurement,setting,value
"PCI: potato carboxypeptidase inhibitor, isoform IIa, obtained by recombinant DNA techniques in E. coli (SEQ ID NO.2) (EQHADPICNKPCKTHDDCSGAWFCQACWNSARTCGPYVG; disulfide 12-27, 18-34, 8-24)","final number of cells, pretreated cells cultivated afterwards in absence of PCI vs non-pretreated cells",Capan-1 cell line,approximately half
same,stimulation of the migration compared to the control,[1],3.5 times
same,number of cells that passed through the Matrigel membrane,[1]; 17 h (control 29 cells),110 cells
same,cell death (propydium iodure fluorescence),[2],No significant difference in relation to the control group
same,viability of the cells (BCECF-AM fluorescence),[2],no decrease of viability being observed
same,Growth (Percentage in relation to the average of the controls),"[3]; 50 mg/mL wtPCI, serum-free medium",107.6%
same,growth of Capan-1 cells,[3]; wtPCI in serum-free medium,not altered
